Laboratory results as given in patent US20050277627A1, “Colchinol derivatives as vascular damaging agents” (priority 2000, published 2005).

Tests used:
[1] = system: mammalian tubulin; settings: O. Boye et al Med. Chem. Res., 1991, 1, 142-150; read-out: IC50 in a tubulin polymerisation assay; cited from earlier work
[2] = system: tumour vasculature in CaNT tumour-bearing mice; test: Activity against tumour vasculature measured by fluorescent dye (Hoechst 33342); type: in vivo; settings: 50 mg/kg intraperitoneally, dye injected 24 hours after drug treatment
Description: (b) Activity Against Tumour Vasculature Measured by Fluorescent Dye
Tumour functional vascular volume in CaNT tumour-bearing mice was measured using the fluorescent dye Hoechst 33342 according to the method of Smith et al (Brit. Jnl. Cancer 1988, 57, 247-253). Five animals were used in control and treated groups. The fluorescent dye was dissolved in saline at 6.25 mg/ml and injected intravenously at 10 mg/kg 24 hours after intraperitoneal drug treatment. One minute later, animals were killed and tumours excised and frozen; 10 μm sections were cut at 3 different levels and observed under UV illumination using an Olympus microscope equipped with epifluorescence. Blood vessels were identified by their fluorescent outlines and vascular volume was quantified using a point scoring system based on that described by Chalkley, (Jnl. Natl. Cancer Inst., 1943, 4, 47-53). All estimates were based on counting a minimum of 100 fields from sections cut at the 3 different levels.

[3] = system: Hras5 tumours (NIH 3T3 fibroblasts transfected with Harvey ras, clone 5) in nude mice; test: Hras5 necrosis model; type: in vivo; settings: 25 mg/kg; single dose, culled 24 hours after dosing; male nude mice
Description: NIH 3T3 fibroblasts transfected with Harvey ras, clone 5, (Hras5 cells) were kept in continual passage in Dulbecco's modifed Eagles medium (DMEM) containing 10% foetal bovine serum (FBS) and 1% glutamine, at 37° C. in a humidified incubator gassed with 7.5% carbon dioxide and 92.5% […]. Cells were implanted subcutaneously into the left flank of male nude mice (8-10 weeks of age) at an inoculum of 2×10^5 cells/mouse. Tumours were measured using calipers and randomised into groups of 2-4 mice between days 9-14 after implant. Mice were dosed with compounds, either intravenously or intraperitoneally, once on day of randomisation and culled 24 hours after dosing. Compounds were dissolved in 20% hydroxypropyl beta cyclodextrin in physiological saline at pH 7 and dosed in a volume of 0.1 ml per 10 g body weight. Tumours were excised, weighed and placed in buffered formalin. Area of necrosis in individual tumours was assessed from a haematoxylin/eosin stained-slide by a pathologist and scored from 0, meaning no significant change, to 10, meaning 91-100% necrosis. The activity of examples 5 and 7 (described hereinafter) against tumour vasculature was measured by the fluorescent dye method described hereinabove. Example 1 scored 6.6 at 25 mg/kg.

## COc1cc2c(c(OC)c1OC)-c1ccc(N)cc1C(NC(C)=O)CC2 (stereo not drawn) [N-[3-amino-9,10,11-trimethoxy-6,7-dihydro-5H-dibenzo[a,c]cyclohepten-5-yl]acetamide]
[1]
  IC50: 58 µM
[2]
  decrease in perfused vascular volume relative to control: 88%

## COc1cc2c(c(OC)c1OC)-c1ccc(OC(=O)CCCC(=O)N3CCN(C(C)=O)CC3)cc1[C@@H](NC(C)=O)CC2 [Example 1, (5S)-5-Acetylamino-9,10,11-trimethoxy-6,7-dihydro-5H-dibenzo[a,c]cyclohepten-3-yl 5-(4-acetylpiperazin-1-yl)-5-oxopentanoate]
[3]
  necrosis score (0 = no significant change, 10 = 91-100% necrosis): 6.6
